From patent publication US20020147196A1, “Composition and method for treating neuropathic pain” (priority 2001, published 2002)

Key:
Format in all cases: in vivo, rat
[1] = tested on: CCI-induced decrease in mechanical paw withdrawal threshold; assay: chronic constriction injury (CCI) model of neuropathic pain: mechanical paw withdrawal threshold measured with an algesymeter; details: for known minimum effective dose in the CCI model: b.i.d. p.o., shown previously to have efficacy in the CCI model
Method: (§1) All experiments were performed using the chronic constriction injury (CCI) model of neuropathic pain in the rat. Under isoflurane anaesthesia, the common left sciatic nerve of male random hooded rats (180-220 g) was exposed at mid thigh level. Four ligatures of chromic gut (4.0) were tied loosely around the nerve with a 1 mm spacing between each. The wound was then closed and secured with suture clips. The surgical procedure was identical for the sham operated animals except the sciatic nerve was not ligated. The animals were allowed a period of 10 days to recover from the surgery before any behavioural testing began. The effect of the test compound on CCI-induced decrease in mechanical paw withdrawal threshold was measured using an algesymeter (Randall & Selitto, 1957). The presence of mechanical allodynia was assessed using Von Frey hair mono filaments (range: 4.19-84.96 g). The rats were lightly restrained and placed upon a metal grid floor, from below which the monofilaments were applied to the plantar surface of the hindpaws. The lowest monofilament to produce a withdrawal was the response recorded.
(§2) All data were expressed as mean±s.e.mean. Statistical analysis was carried out to compare the difference between the drug treated group and vehicle treated groups using unpaired Student's t-test (P<0.05 considered significant).

[2] = tested on: CCI-induced tactile allodynia; assay: CCI model of neuropathic pain: mechanical (tactile) allodynia assessed with Von Frey hair monofilaments
Method: as §1, §2

[3] = observation of adverse side effects during chronic dosing in the CCI experiments
Method: Lamotrigine (30 mgkg^−1 b.i.d. p.o.) was dosed chronically for a period of 12 days. The dose chosen was determined from previous “in-house” data and doses believed to be efficacious in the clinical treatment of neuropathic pain.
Bupropion (10 mgkg^−1 b.i.d. p.o.) was dosed chronically for a period of 8 days. The dose chosen reflects both previous “in-house” data and that which is believed to be efficacious in the clinical treatment of neuropathic pain.

[4] = bupropion 10 mgkg^−1 b.i.d. p.o., days 47-54

## CC(NC(C)(C)C)C(=O)c1cccc(Cl)c1 (stereo not shown) [bupropion]
[1]
  known minimum effective dose in the CCI model: 10 mgkg^−1
[1]; bupropion 10 mgkg^−1, first day of dosing only, 1 hour post dose, sham-operated rats
  effect on paw withdrawal thresholds in sham-operated rats: small effect
[1]; bupropion 10 mgkg^−1, single dose
  reversal of the fall in paw withdrawal threshold back towards sham-operated levels after a single dose: immediate reversal
[1]; [4]
  reversal of paw withdrawal threshold during the chronic dosing period: maintained throughout the chronic dosing period
  time the reversal of paw withdrawal threshold was maintained following cessation of treatment: 4 days
[2]; bupropion 10 mgkg^−1 b.i.d. p.o., after cessation
  reversal of tactile allodynia following cessation of treatment: not maintained
[2]; [4]
  effect on tactile allodynia (Von Frey hair withdrawal threshold) during chronic dosing: some effect
[2]; bupropion 10 mgkg^−1 b.i.d. p.o., days 47-54, last day of dosing
  day of maximal reversal of tactile allodynia: 54 days
[3]; bupropion 10 mgkg^−1 b.i.d. p.o. for 8 days
  adverse side effects as a result of the surgery or chronic dosing schedule: No adverse side effects were observed

## Nc1nnc(-c2cccc(Cl)c2Cl)c(N)n1 [lamotrigine]
[1]
  known minimum effective dose in the CCI model: 10 mgkg^−1
[1]; lamotrigine 30 mgkg^−1 twice daily p.o., days 13-24 post-operative
  reversal of the CCI-induced decrease in paw-withdrawal threshold to that of sham-operated animals: fully reversed
[1]; lamotrigine 30 mgkg^−1 twice daily p.o., dosing ended day 24
  post-operative day until which the analgesic effect was maintained following cessation of treatment: 37 day post-operative
[1]; lamotrigine 30 mgkg^−1 twice daily p.o., dosing from day 13 post-operative
  post-operative day by which the decrease in paw-withdrawal threshold was fully reversed: ≤ 16 days
[2]; lamotrigine 30 mgkg^−1 b.i.d. p.o.
  effect on CCI-induced tactile allodynia (Von Frey hair withdrawal threshold) during chronic dosing: transient reversal
[2]; lamotrigine 30 mgkg^−1 b.i.d. p.o., after cessation
  effect on tactile allodynia following cessation of treatment, compared to vehicle treated group: small reversal
[3]; lamotrigine 30 mgkg^−1 b.i.d. p.o. for 12 days
  adverse side effects as a result of the surgery or chronic dosing schedule: No adverse side effects were observed
